In brackets after ≈: the same amount, converted by molar mass. Activity calls are given as the source filed them. The calls are words filed in the database; no cut-off is given here.
Assays:
[1] = test system: Mycobacterium tuberculosis; test: Antitubercular activity against replicating Mycobacterium tuberculosis H37Rv assessed as growth inhibition measured after 7 days incubation by microplate alamar blue assay; assay type: functional; details: 168 h
[2] = test system: Escherichia coli; test: Antibacterial activity against Escherichia coli ATCC 25922 assessed as growth inhibition incubated for 18 to 24 hrs by broth microdilution based antibiotic susceptibility testing method; assay type: functional
[3] = test system: Mycobacterium tuberculosis; test: Antimycobacterial activity against dormant stage of Mycobacterium tuberculosis H37Ra ATCC 25177 assessed as growth inhibition at 10 uM incubated for 12 days by XRMA method relative to control; assay type: functional; details: H37Ra ATCC 25177, 288 h
[4] = test system: CHO-K1; test: Cytotoxicity against CHOK1 cells assessed as reduction in cell viability incubated for 24 hrs by MTT assay; assay type: cell-based; details: Cricetulus griseus, CHO-K1, 24 h
[5] = test system: MCF7; test: Cytotoxicity against human MCF7 cells assessed as cell viability at 10 uM incubated for 24 hrs by MTT assay; assay type: cell-based; details: mcf7, 24 h
[6] = test system: B16-F10; test: Cytotoxicity against mouse B16F10 cells assessed as cell viability at 10 uM incubated for 24 hrs by MTT assay; assay type: cell-based; details: b16-f10, 24 h
[7] = test system: Klebsiella pneumoniae; test: Antibacterial activity against Klebsiella pneumoniae BAA-1705 assessed as growth inhibition incubated for 18 to 24 hrs by broth microdilution based antibiotic susceptibility testing method; assay type: functional; details: ATCC BAA-1705
[8] = test system: Pseudomonas aeruginosa; test: Antibacterial activity against Pseudomonas aeruginosa ATCC 27853 assessed as growth inhibition incubated for 18 to 24 hrs by broth microdilution based antibiotic susceptibility testing method; assay type: functional
[9] = test system: Staphylococcus aureus; test: Antibacterial activity against Staphylococcus aureus ATCC 29213 assessed as growth inhibition incubated for 18 to 24 hrs by broth microdilution based antibiotic susceptibility testing method; assay type: functional
[10] = Selectivity index, ratio of IC50 for CHOK1 cells to MIC for Mycobacterium tuberculosis H37Rv; assay type: toxicity; details: hamster, CHO-K1 cells; read-out: Selectivity Index
[11] = test system: Mycolicibacterium fortuitum; test: Antimycobacterial activity against Mycobacterium fortuitum assessed as growth inhibition; assay type: functional, organism-based
[12] = test system: Mycobacteroides chelonae; test: Antimycobacterial activity against Mycobacterium chelonae assessed as growth inhibition; assay type: functional, organism-based
[13] = test system: Mycobacteroides abscessus; test: Antimycobacterial activity against Mycobacterium abscessus assessed as growth inhibition; assay type: functional, organism-based
[14] = test system: CHO-K1; test: Cytotoxicity against CHOK1 cells assessed as cell viability at 8 ug/ml incubated for 24 hrs by MTT assay; assay type: cell-based, Cricetulus griseus; details: chinese hamster, cho-k1, 24 h
[15] = test system: Mycobacterium tuberculosis; test: Antitubercular activity against Mycobacterium tuberculosis H37Rv ATCC 27294 assessed as bacterial growth inhibition incubated for 5 days by standard microdilution method; assay type: functional; details: H37Rv ATCC 27294, 120 h
[16] = test system: Acinetobacter baumannii; test: Antibacterial activity against Acinetobacter baumannii BAA-1605 assessed as growth inhibition incubated for 18 to 24 hrs by broth microdilution based antibiotic susceptibility testing method; assay type: functional

SMILES	MIC [1]	inhibition at 10 µM [3]	also measured
CC(C)c1nc(C(=O)NCc2ccc(F)cc2)c(-c2ccc(C#N)cc2)s1	> 34 µg/mL	–	–
Cc1ccc(C(C)NC(=O)c2nc(C(C)C)sc2-c2ccc(C#N)cc2)cc1 (stereo unspecified)	> 34 µg/mL	–	–
CCOC(=O)c1nc(C(C)C)sc1-c1ccc(C#N)cc1	1.8 µg/mL (≈ 5.99 µM)	82.7%	MIC [2]: > 50 µM; IC50 [4]: 40.5 µg/mL (≈ 135 µM); Activity [5]: Non-Toxic; Activity [6]: Non-Toxic; MIC [7]: > 50 µM; MIC [8]: > 50 µM; MIC [9]: > 50 µM; selectivity ratio [10]: 22.4; inhibition [11]: inactive; inhibition [12]: inactive; inhibition [13]: inactive
CCOC(=O)c1nc(C2CCCCC2)sc1-c1cccc(C#N)c1	4.2 µg/mL (≈ 12.3 µM)	90.3%	MIC [2]: > 50 µM; IC50 [4]: > 50 µg/mL; Activity [5]: Non-Toxic; Activity [6]: Non-Toxic; MIC [7]: > 50 µM; MIC [8]: > 50 µM; MIC [9]: 50 µM (≈ 17 µg/mL); selectivity ratio [10]: > 11.9; inhibition [11]: inactive; inhibition [12]: inactive; inhibition [13]: inactive
COc1ccc(CCNC(=O)c2nc(C(C)C)sc2-c2ccc(C#N)cc2)cc1OC	5.4 µg/mL (≈ 12.4 µM)	89.4%	–
COc1ccc(CCNC(=O)c2nc(C(C)C)sc2-c2ccc3c(c2)OCO3)cc1OC	5.6 µg/mL (≈ 12.3 µM)	84.9%	–
CCOC(=O)c1nc(C(C)C)sc1-c1cccc2cnccc12	16.3 µg/mL (≈ 49.9 µM)	–	–
CCOC(=O)c1nc(C2CCCCC2)sc1-c1ccc(C#N)cc1	2.1 µg/mL (≈ 6.17 µM)	90.5%	MIC [2]: > 50 µM; Activity [14]: Non-Toxic; IC50 [4]: 75.2 µg/mL (≈ 221 µM); Activity [5]: Non-Toxic; Activity [6]: Non-Toxic; MIC [7]: > 50 µM; MIC [8]: > 50 µM; MIC [9]: 50 µM (≈ 17 µg/mL); selectivity ratio [10]: 35.8; inhibition [11]: inactive; inhibition [12]: inactive; inhibition [13]: inactive
CCOC(=O)c1nc(C(C)C)sc1-c1ccccc1C#N	15 µg/mL (≈ 49.9 µM)	–	–
CCOC(=O)c1nc(C(C)C)sc1-c1ccc2c(c1)OCO2	7.9 µg/mL (≈ 24.7 µM)	90.1%	–
CC(C)c1nc(C(=O)NCc2cccnc2)c(-c2ccc3c(c2)OCO3)s1	9.5 µg/mL (≈ 24.9 µM)	87.1%	–
COc1ncnc(Cn2cc(C(=O)NCCO)c3ncc(C)cc32)c1C [TBA-7371]	–	–	MIC [15]: 0.78 to 3.12 µM (≈ 0.277 to 1.11 µg/mL)
CC(C)c1nc(C(=O)N2CCOCC2)c(-c2ccc(C#N)cc2)s1	> 34 µg/mL	–	–
CC(C)c1nc(C(=O)N[C@@H](C)c2ccccc2)c(-c2ccc3c(c2)OCO3)s1	4.9 µg/mL (≈ 12.4 µM)	90.8%	–
CCOC(=O)c1nc(C(C)C)sc1-c1ccc2c(c1)NC(=O)CO2	> 34 µg/mL	–	–
CC(C)c1nc(C(=O)NCc2cc(Cl)cc(Cl)c2)c(-c2ccc(C#N)cc2)s1	> 34 µg/mL	–	–
CC(C)c1nc(C(=O)NCc2ccc3c(c2)OCO3)c(-c2ccc(C#N)cc2)s1	> 34 µg/mL	–	–
CC(C)c1nc(C(=O)NC(C)c2ccc(Br)cc2)c(-c2ccc(C#N)cc2)s1 (stereo unspecified)	> 34 µg/mL	–	–
CCOC(=O)c1nc(C)sc1-c1ccc2c(c1)OCO2	13.6 µg/mL (≈ 46.7 µM)	–	–
CCOC(=O)c1nc(C2CCCCC2)sc1-c1cnc2ccccc2c1	4.5 µg/mL (≈ 12.3 µM)	86.5%	–
CO[C@@]12[C@H](COC(N)=O)C3=C(C(=O)C(C)=C(N)C3=O)N1C[C@@H]1N[C@@H]12 [MITOMYCIN]	–	–	IC50 [4]: 13.1 µg/mL (≈ 39.2 µM)
C[C@H](NC(=O)c1nc(C2CCCCC2)sc1-c1ccc(C#N)cc1)c1ccccc1	20.7 µg/mL (≈ 49.8 µM)	–	–
Cc1nc(C(=O)NCc2cccnc2)c(-c2ccc(C#N)cc2)s1	> 34 µg/mL	–	–
COc1ccc(CCNC(=O)c2nc(C3CCCCC3)sc2-c2ccc(C#N)cc2)cc1OC	5.9 µg/mL (≈ 12.4 µM)	71.6%	–
CCOC(=O)c1nc(C(C)C)sc1-c1cnc2ccccc2c1	4 µg/mL (≈ 12.3 µM)	80.5%	MIC [2]: > 50 µM; IC50 [4]: > 50 µg/mL; Activity [5]: Non-Toxic; Activity [6]: Non-Toxic; MIC [7]: > 50 µM; MIC [8]: > 50 µM; MIC [9]: > 50 µM; selectivity ratio [10]: > 12.5; inhibition [11]: inactive; inhibition [12]: inactive; inhibition [13]: inactive
CC(C)c1nc(C(=O)NCc2ccc(Cl)cc2)c(-c2ccc(C#N)cc2)s1	> 34 µg/mL	–	–
CCOC(=O)c1nc(C2CCCCC2)sc1-c1ccc2nccnc2c1	4.5 µg/mL (≈ 12.2 µM)	93.3%	–

SMILES	MIC [1]	inhibition at 10 µM [3]	also measured
CCOC(=O)c1nc(C2CCCCC2)sc1-c1ccc2c(c1)OCO2	8.9 µg/mL (≈ 24.8 µM)	92%	–
CCOC(=O)c1nc(C(C)C)sc1-c1ccc2nccnc2c1	8.1 µg/mL (≈ 24.7 µM)	19.5%	–
CCOC(=O)c1nc(C2CCCCC2)sc1-c1cccc2cnccc12	4.5 µg/mL (≈ 12.3 µM)	96%	–
CC(C)c1nc(C(=O)N[C@H](C)c2ccccc2)c(-c2ccc3c(c2)OCO3)s1	4.9 µg/mL (≈ 12.4 µM)	90.9%	–
CC(C)c1nc(C(=O)N[C@@H](C)c2ccccc2)c(-c2ccc(C#N)cc2)s1	18.7 µg/mL (≈ 49.8 µM)	73.2%	–
CCOC(=O)c1nc(C)sc1-c1ccc(C#N)cc1	14.5 µg/mL (≈ 53.2 µM)	20.2%	–
CC(C)c1nc(C(=O)NCc2ccc(Cl)c(F)c2)c(-c2ccc(C#N)cc2)s1	> 34 µg/mL	–	–
COc1ccc(CCNC(=O)c2nc(C)sc2-c2ccc(C#N)cc2)cc1OC	> 34 µg/mL	67.3%	–
CCOC(=O)c1nc(C2CCCCC2)sc1-c1ccccc1C#N	4.2 µg/mL (≈ 12.3 µM)	91.7%	MIC [2]: > 50 µM; IC50 [4]: > 50 µg/mL; Activity [5]: Non-Toxic; Activity [6]: Non-Toxic; MIC [7]: > 50 µM; MIC [8]: > 50 µM; MIC [9]: 50 µM (≈ 17 µg/mL); selectivity ratio [10]: > 11.9; inhibition [11]: inactive; inhibition [12]: inactive; inhibition [13]: inactive
Cc1nc(C(=O)N[C@@H](C)c2ccccc2)c(-c2ccc(C#N)cc2)s1	> 34 µg/mL	73.5%	–
Cc1nc(C(=O)NCc2ccc3c(c2)OCO3)c(-c2ccc(C#N)cc2)s1	> 34 µg/mL	–	–
Cc1nc(C(=O)N2CCOCC2)c(-c2ccc(C#N)cc2)s1	> 34 µg/mL	–	–
CC(C)c1nc(C(=O)NCc2ccccc2)c(-c2ccc(C#N)cc2)s1	> 34 µg/mL	–	–
CC(C)c1nc(C(=O)N[C@H](C)c2cccc3ccccc23)c(-c2ccc(C#N)cc2)s1	> 34 µg/mL	–	–
Cc1nc(C(=O)N[C@H](C)c2ccccc2)c(-c2ccc(C#N)cc2)s1	> 34 µg/mL	74%	–
N#Cc1ccc(-c2sc(C3CCCCC3)nc2C(=O)NCc2cccnc2)cc1	> 34 µg/mL	–	–
CO[C@H]1/C=C/O[C@@]2(C)Oc3c(C)c(O)c4c(O)c(c(/C=N/N5CCN(C)CC5)c(O)c4c3C2=O)NC(=O)/C(C)=C\C=C\[C@H](C)[C@H](O)[C@@H](C)[C@@H](O)[C@@H](C)[C@H](OC(C)=O)[C@@H]1C [RIFAMPIN]	0.2 µg/mL (≈ 0.243 µM)	–	–
N#Cc1ccc(-c2sc(C3CCCCC3)nc2C(=O)N2CCOCC2)cc1	> 34 µg/mL	–	–
CC(C)c1nc(C(=O)N2CCOCC2)c(-c2ccc3c(c2)OCO3)s1	> 34 µg/mL	–	–
CC(C)c1nc(C(=O)NCc2ccc3c(c2)OCO3)c(-c2ccc3c(c2)OCO3)s1	10.6 µg/mL (≈ 25 µM)	82.2%	–
C[C@@H](NC(=O)c1nc(C2CCCCC2)sc1-c1ccc(C#N)cc1)c1ccccc1	10.3 µg/mL (≈ 24.8 µM)	57.8%	–
N#Cc1ccc(-c2sc(C3CCCCC3)nc2C(=O)NCc2ccc3c(c2)OCO3)cc1	> 34 µg/mL	–	–
CCOC(=O)c1nc(C2CCCCC2)sc1-c1ccc2c(c1)NC(=O)CO2	19.3 µg/mL (≈ 49.9 µM)	–	–
CCOC(=O)c1nc(C(C)C)sc1-c1cccc(C#N)c1	15 to 17 µg/mL (≈ 49.9 to 56.6 µM)	–	–
CC(C)c1nc(C(=O)NCc2cccnc2)c(-c2ccc(C#N)cc2)s1	> 34 µg/mL	–	–
CC(C)c1nc(C(=O)N[C@H](C)c2ccccc2)c(-c2ccc(C#N)cc2)s1	9.3 µg/mL (≈ 24.8 µM)	86.7%	–
C[C@H]1COc2c(N3CCN(C)CC3)c(F)cc3c(=O)c(C(=O)O)cn1c23 [LEVOFLOXACIN]	–	–	MIC [2]: < 30 µM; MIC [16]: 8 µM (≈ 2.89 µg/mL)
